Patent US4732977A, “Carbapenem antibiotics” (priority 1986, dated 1988)
Read-outs that look alike come from different tables or passages of the source.

Assay: Half-life (stability) in buffer solution
Assay type: physicochemical
Details: for half-life at 100 µM: 10^-4 M
Experimental: T1/2 =9.8 h (measured at a concentration of 10^-4 M in phosphate buffer pH 7.4 at 36.8° C.).
UV (phosphate buffer, pH 7.4) λmax 294 nm (ε=8,202); T1/2 (phosphate buffer, pH 7.4, M=0.967, T=37° C.) 9.1 h.
(c of 10^-4 M in pH 7.4 phosphate buffer.
.tau.1/2 =20.8 h measured at 37° C. in buffer (pG 7.4) for a concentration of 10^-4 M.
.tau.1/2 =12.5 h measured at 37° C. in buffer pH 7.4 for a concentration of 10^-4 M.
h (measured for a concentration of 10^-4 M at 36.8° C. in buffer pH 7.4).
.tau.1/2 =26.0 h (measured for a concentration of 10^-4 M at 36.8° C. in buffer pH 7.4).
.tau.1/2 =16.6 h (measured at 36.8° C., pH 7.4 for a concentration of 10^-4 M) and (5R, 6S) 6-(1R-hydroxyethyl)7-oxo-3-[1,2,6-trimethylpyridinium-4-yl)methylthio]-1-azabicyclo[3.2.0 hept-2-ene-2-carboxylate, 0.010 g, 0.7%;
.tau.1/2 =11.6 h (measured for a concentration of 10^-4 M at 36.8° C. in buffer pH 7.4).
.tau.1/2 =13.4 h (measured for a concentration of 10^-4 M at 36.8° C. in buffer pH 7.4).
.tau.1/2 =14.4 h (measured for a concentration of 10^-4 M at 36.8° C. in buffer pH 7.4).
T 1/2: 10.2 h (biological buffer).
.tau.1/2 =10.2 h measured at 36.8° C. for a concentration of 10^-4 M in buffer pH 7.4.

[1] = (phosphate) buffer pH 7.4, 37° C., read-out: half-life in solution (converted)
[2] = (phosphate) buffer pH 7.4, 36.8° C., read-out: T1/2 (half-life in solution) (converted)

SMILES	half-life at 100 µM [2] [min]	other results
Cc1cccc(CSC2=C(C(=O)[O-])N3C(=O)[C@H]([C@@H](C)O)C3[C@H]2C)[n+]1C (stereo in doubt) [Example 25, (5R,6S) 3-[(1,6-dimethylpyridinium-2-yl)methylthio]-6-(1R-hydroxyethyl)-4R-methyl-7-oxo-1-azabicyclo[3.2.0]hept-2-ene-2-carboxylate]	–	half-life at 100 µM [1]: 1250 min
Cc1ccc(CSC2=C(C(=O)[O-])N3C(=O)[C@H]([C@@H](C)O)C3[C@H]2C)c[n+]1C (stereo in doubt) [Example 34, (5R,6S) 3-[(1,6-dimethylpyridinium-3-yl)methylthio]-6-(1R-hydroxyethyl)-4R-methyl-7-oxo-1-azabicyclo[3.2.0]hept-2-ene-2-carboxylate]	1670	–
Cc1cc(CSC2=C(C(=O)[O-])N3C(=O)[C@H]([C@@H](C)O)C3[C@H]2C)c[n+](C)c1 (stereo in doubt) [Example 35, (5R,6S) 3-[(1,5-dimethylpyridinium-3-yl)methylthio]-6-(1R-hydroxyethyl)-4R-methyl-7-oxo-1-azabicyclo[3.2.0]hept-2-ene-2-carboxylate]	1560	–
Cc1cc(C)[n+](C)c(CSC2=C(C(=O)[O-])N3C(=O)[C@H]([C@@H](C)O)C3[C@H]2C)c1 (stereo in doubt) [Example 51A, (5R,6S) 6-(1R-Hydroxyethyl)-4R-methyl-7-oxo-3-[(1,4,6-trimethylpyridinium-2-yl)-methylthio]-1-azabicyclo[3.2.0]hept-2-ene-2-carboxylate]	–	half-life at 100 µM (phosphate buffer, 36.7° C., read-out: t 1/2 (half-life in solution) (converted)): 1340 min
Cc1cc(CSC2=C(C(=O)[O-])N3C(=O)[C@H]([C@@H](C)O)C3[C@H]2C)cc(C)[n+]1C (stereo in doubt) [Example 51B, (5R,6S) 6-(1R-Hydroxyethyl)-4R-methyl-7-oxo-3-[(1,2,6-trimethylpyridinium-4-yl)-methylthio]-1-azabicyclo[3.2.0]hept-2-ene-2-carboxylate]	1790	–
Cc1c(CSC2=C(C(=O)[O-])N3C(=O)[C@H]([C@@H](C)O)C3[C@H]2C)sc[n+]1C (stereo in doubt) [Example 54, (5R,6S) 3-[(3,4-Dimethylthiazolium-5-yl)methylthio]-6-(1'R-hydroxyethyl)-4R-methyl-7-oxo-1-azabicyclo[3.2.0]hept-2-ene-2-carboxylate]	–	half-life at 100 µM [1]: 1140 min
Cc1cc(CSC2=C(C(=O)[O-])N3C(=O)[C@H]([C@@H](C)O)[C@H]3C2)cc(C)[n+]1C [(5R,6S) 6-(1R-hydroxyethyl)-7-oxo-3-[(1,2,6-trimethylpyridinium-4-yl)methylthio]-1-azabicyclo[3.2.0]hept-2-ene-2-carboxylate]	696	–
Cc1cc(C)[n+](C)c(CSC2=C(C(=O)[O-])N3C(=O)[C@H]([C@@H](C)O)[C@H]3C2)c1 [(5R,6S) 6-(1R-hydroxyethyl)-7-oxo-3-[(1,4,6-trimethylpyridinium-2-yl)methylthio]-1-azabicyclo[3.2.0]hept-2-ene-2-carboxylate]	996	–
Cc1cccc(CSC2=C(C(=O)[O-])N3C(=O)[C@H]([C@@H](C)O)[C@H]3C2)[n+]1C [Example 26, (5R,6S) 3-[(1,6-dimethylpyridinium-2-yl)methylthio]-6-(1R-hydroxyethyl)-7-oxo-1-azabicyclo[3.2.0]hept-2-ene-2-carboxylate]	–	half-life at 100 µM [1]: 750 min
Cc1cc(CSC2=C(C(=O)[O-])N3C(=O)[C@H]([C@@H](C)O)[C@H]3C2)c[n+](C)c1 [Example 37]	804	–
Cc1ccc(CSC2=C(C(=O)[O-])N3C(=O)[C@H]([C@@H](C)O)[C@H]3C2)c[n+]1C [Example 38, (5R,6S) 3-[(1,6-dimethylpyridinium-3-yl)methylthio]-6-(1R-hydroxyethyl)-7-oxo-1-azabicyclo[3.2.0]hept-2-ene-2-carboxylate]	864	–
C[C@@H](O)[C@H]1C(=O)N2C(C(=O)[O-])=C(SCc3cncc[n+]3C)C[C@H]12 [Example 45, (5R,6S)-6-(1R-Hydroxyethyl)-3-[(1-methyl-1,4-pyraziinium-2-yl)methylthio]-7-oxo-1-azabicyclo(3.2.0)-hept-2-ene-2-carboxylate]	–	half-life (biological buffer, read-out: T 1/2 (half-life in solution) (converted)): 612 min
